Consider nine compounds from patent US20050260126A1 (priority 2002, published 2005).

Some results are limits rather than exact numbers.

Data set [1] relates to abnormal prion proteins in ScN2a cells with persistent infection of scrapie. Put plainly: cells. It counts as cell-based, mouse. As to conditions: for IC50: Mus musculus, ScN2a, 96 h, read-out: Inhibitory effects on producing abnormal prion protein IC50; for Inhibitory effects on producing abnormal prion proteins (in words): ScN2a cells.
For data set [2] the following is noted: Slc:ICR, mouse, not told, iv.
Another data set concerns ScN2a cells. The conditions noted are these: for Concentration of inhibiting cell proliferation TC: mouse.
The nature of the next data set: in vivo. The conditions noted are these: male, Crj:CD1, mouse, iv.

`Clc1ccc(/C=C/c2nc3ccccc3[nH]2)cc1` [Compound N-457, 2-[2-(4-chlorophenyl)ethenyl]benzimidazole]: in data set [1], the IC50 was found to be 1 nM and the “Inhibitory effects on producing abnormal prion proteins (in words)” value was “highly inhibitory effects”. For the same compound, in data set [2], the “Permeability into the brain: content in Brain” value is 7.1 % ID/g or ml and the “Permeability into the brain: content in Plasma” value is reported as 2.8 % ID/g or ml. In addition, in the data set on ScN2a cells, the “TC and safety concentration margin (in words)” value is given as “higher TCs, therefore higher safety concentration margins”; the “Concentration of inhibiting cell proliferation TC” value was 100 µM. In addition, in the data set “in vivo”, the MTD is not below 10 mg/kg.

In the case of `Fc1ccc(/C=C/c2nc3ccccc3o2)cc1` [BF-208, 2-[2-(4-fluorophenyl)ethenyl]benzoxazole], the IC50 in data set [1] was determined as 0.8 nM. Moreover, in data set [2], the “Permeability into the brain: content in Brain” value was 11.0 % ID/g or ml and the “Permeability into the brain: content in Plasma” value was 0.53 % ID/g or ml. Moreover, the “Concentration of inhibiting cell proliferation TC” value in the data set with ScN2a cells is more than 10 µM. Further, in “in vivo”, the MTD was not below 10 mg/kg.

Turning to `CNc1ccc(C=Cc2ccc3ccccc3n2)c(O)c1` [BF-198, 2-[2-(2-hydroxyl-4-methylaminophenyl)-ethenyl]quinoline], the IC50 in data set [1] was 0.8 nM. Further, in data set [2], the “Permeability into the brain: content in Brain” value is on record as 9.9 % ID/g or ml and the “Permeability into the brain: content in Plasma” value is 4.7 % ID/g or ml. For the same compound, in the data set on ScN2a cells, the “Concentration of inhibiting cell proliferation TC” value was found to be 10 µM. This compound also showed an MTD in “in vivo” not below 10 mg/kg.

As for `CNc1ccc(/C=C/c2nc3cc(I)ccc3o2)cc1` [BF-180, 2-(4-methylamino)-styryl-5-iodobenzoxazole], in data set [1], the IC50 amounted to 10 nM. Further, in data set [2], the “Permeability into the brain: content in Brain” value is given as 2.4 % ID/g or ml and the “Permeability into the brain: content in Plasma” value is reported as 1.2 % ID/g or ml. Also, the “Concentration of inhibiting cell proliferation TC” value in the data set with ScN2a cells is 100 µM. Besides, the MTD in the data set “in vivo” is not below 10 mg/kg.

In the case of `Fc1ccc(/C=C/c2nc3ccccc3s2)cc1` [Compound N-453, 2-[2-(4-fluorophenyl)ethenyl]benzothiazole], in data set [1], the IC50 is 1 nM and the “Inhibitory effects on producing abnormal prion proteins (in words)” value is given as “highly inhibitory effects”. For the same compound, in data set [2], the “Permeability into the brain: content in Brain” value was 5.0 % ID/g or ml and the “Permeability into the brain: content in Plasma” value is on record as 1.4 % ID/g or ml. Besides, in the data set on ScN2a cells, the “TC and safety concentration margin (in words)” value is reported as “higher TCs, therefore higher safety concentration margins”; the “Concentration of inhibiting cell proliferation TC” value is 100 µM. This compound also yielded an MTD in “in vivo” not below 10 mg/kg.

For the compound `Nc1ccc(/C=C/c2nc3cc(F)ccc3o2)cc1` [BF-140, 2-(4-amino)styryl-5-fluorobenzoxazole], in data set [1], the IC50 was determined as 5 nM. Also, in data set [2], the “Permeability into the brain: content in Brain” value is 5.5 % ID/g or ml and the “Permeability into the brain: content in Plasma” value is given as 1.1 % ID/g or ml. Also, in the data set with ScN2a cells, the “Concentration of inhibiting cell proliferation TC” value came out at 50 µM. Also, the MTD in “in vivo” was not below 10 mg/kg.

Take `CN(C)c1ccc(/C=C/c2ccc3ccccc3n2)c(O)c1` [BF-193, 2-[2-(2-hydroxy-4-dimethylaminophenyl)ethenyl]quinoline]: the IC50 in data set [1] came out at 1.6 nM. In addition, in data set [2], the “Permeability into the brain: content in Brain” value is recorded as 5.2 % ID/g or ml and the “Permeability into the brain: content in Plasma” value is 2.7 % ID/g or ml. Also, in the data set on ScN2a cells, the “Concentration of inhibiting cell proliferation TC” value was determined as 10 µM. The MTD in the data set “in vivo” was not below 10 mg/kg.

Consider `CNc1ccc(/C=C/C=C/c2nc3ccccc3s2)cc1` [BF-187, 2-[[4-(4-methylamino)-phenyl]-1,3-butadienyl]-benzothiazole], for which, in data set [1], the IC50 was 10 nM. In data set [2], the “Permeability into the brain: content in Brain” value is reported as 3.6 % ID/g or ml and the “Permeability into the brain: content in Plasma” value was 1.3 % ID/g or ml. Further, the “Concentration of inhibiting cell proliferation TC” value in the data set with ScN2a cells is 10 µM. The compound further gave an MTD in the data set “in vivo” not below 10 mg/kg.

On to `CNc1ccc(C=Cc2ccc3ccccc3n2)c(CF)c1` [BF-195, 2-[2-(2-fluoromethyl-4-methylaminophenyl)-ethenyl]quinoline], for which the IC50 in data set [1] was found to be 32 nM. In data set [2], the “Permeability into the brain: content in Brain” value was 4.8 % ID/g or ml and the “Permeability into the brain: content in Plasma” value is on record as 1.2 % ID/g or ml. Also, in the data set on ScN2a cells, the “Concentration of inhibiting cell proliferation TC” value was 10 µM. The same compound came in with an MTD in the data set “in vivo” not below 10 mg/kg.

One may read the IC50 as the concentration that gives 50% inhibition.
